# In PubChem BioAssay AID2060490 (Molecular Pharmacology Branch, DTP, NCI, 2025):
# System: 885512-296-R-J2-PDC complex spheroid viability
# Assay: Anticancer human tumor 885512-296-R-J2-PDC patient-derived breast carcinoma cell line growth inhibition [GQUAD]
# Conditions: for IC50: curve of first compound; for viability, T/C: stronger effect = lower value
# Summary of the method: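 Multi-cell-type spheroids of tumor cells with HUVEC and mesenchymal stem cells, treated with drug combinations. Concentrations descend in half-log steps from near clinical Cmax, or from 10 microM where Cmax is unknown; viability read-out.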
# [1] = second compound 0.0316 µM, first compound 0.0316 µM
# [2] = second compound 0.0316 µM, first compound 0.1 µM
# [3] = second compound 0.0316 µM, first compound 0.316 µM
# [4] = second compound 0.0316 µM, first compound 1 µM
# [5] = second compound 0.0316 µM, first compound 3.16 µM
# [6] = second compound 0.0316 µM, first compound 10 µM
# [7] = second compound 0.1 µM, first compound 0.0316 µM
# [8] = second compound 0.1 µM, first compound 0.1 µM
# [9] = second compound 0.1 µM, first compound 0.316 µM
# [10] = second compound 0.1 µM, first compound 1 µM
# [11] = second compound 0.1 µM, first compound 3.16 µM
# [12] = second compound 0.1 µM, first compound 10 µM
# [13] = second compound 0.316 µM, first compound 0.0316 µM
# [14] = second compound 0.316 µM, first compound 0.1 µM
# [15] = second compound 0.316 µM, first compound 0.316 µM
# [16] = second compound 0.316 µM, first compound 1 µM
# [17] = second compound 0.316 µM, first compound 3.16 µM
# [18] = second compound 0.316 µM, first compound 10 µM
# [19] = second compound 1 µM, first compound 0.0316 µM
# [20] = second compound 1 µM, first compound 0.1 µM
# [21] = second compound 1 µM, first compound 0.316 µM
# [22] = second compound 1 µM, first compound 1 µM
# [23] = second compound 1 µM, first compound 3.16 µM
# [24] = second compound 1 µM, first compound 10 µM
# [25] = second compound 3.16 µM, first compound 0.0316 µM
# [26] = second compound 3.16 µM, first compound 0.1 µM
# [27] = second compound 3.16 µM, first compound 0.316 µM
# [28] = second compound 3.16 µM, first compound 1 µM
# [29] = second compound 3.16 µM, first compound 3.16 µM
# [30] = second compound 3.16 µM, first compound 10 µM
# [31] = second compound 10 µM, first compound 0.0316 µM
# [32] = second compound 10 µM, first compound 0.1 µM
# [33] = second compound 10 µM, first compound 0.316 µM
# [34] = second compound 10 µM, first compound 1 µM
# [35] = second compound 10 µM, first compound 3.16 µM
# [36] = second compound 10 µM, first compound 10 µM
# 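Note: spheroids exposed to the compounds for one week.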
# 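Throughout, for viability, T/C: percent of tumor spheroid viability relative to DMSO vehicle control wells.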
structure (smiles),measurement,setting,value
COc1ncnc(C2CC2)c1-c1ncc2cnn(Cc3ccc(-c4nc(C(F)(F)F)cn4C(C)C)cc3)c2n1 + Cc1[nH]c2ccc(F)cc2c1-c1nc2c3cccnc3c3ncccc3c2[nH]1,IC50,second compound 0.0316 µM,948 nM
same,IC50,second compound 0.1 µM,660 nM
same,IC50,second compound 0.316 µM,564 nM
same,IC50,second compound 1 µM,93.9 nM
same,IC50,second compound 3.16 µM,< 31.6 nM
same,IC50,second compound 10 µM,< 31.6 nM
same,"viability, T/C",[1],89.9%
same,"viability, T/C",[2],82.6%
same,"viability, T/C",[3],64.5%
same,"viability, T/C",[4],52.1%
same,"viability, T/C",[5],25.1%
same,"viability, T/C",[6],2.97%
same,"viability, T/C",[7],104%
same,"viability, T/C",[8],83.5%
same,"viability, T/C",[9],66.7%
same,"viability, T/C",[10],38.7%
same,"viability, T/C",[11],23.7%
same,"viability, T/C",[12],2.95%
same,"viability, T/C",[13],88.5%
same,"viability, T/C",[14],78.3%
same,"viability, T/C",[15],60.5%
same,"viability, T/C",[16],34.5%
same,"viability, T/C",[17],27.8%
same,"viability, T/C",[18],2.76%
same,"viability, T/C",[19],59.2%
same,"viability, T/C",[20],49.4%
same,"viability, T/C",[21],37.4%
same,"viability, T/C",[22],28.5%
same,"viability, T/C",[23],25.1%
same,"viability, T/C",[24],2.31%
same,"viability, T/C",[25],5.23%
same,"viability, T/C",[26],4.49%
same,"viability, T/C",[27],2.87%
same,"viability, T/C",[28],4.14%
same,"viability, T/C",[29],3.49%
same,"viability, T/C",[30],0.54%
same,"viability, T/C",[31],1.44%
same,"viability, T/C",[32],1.29%
same,"viability, T/C",[33],1.4%
same,"viability, T/C",[34],2.23%
same,"viability, T/C",[35],2.81%
same,"viability, T/C",[36],0.35%
Cc1[nH]c2ccccc2c1CCNCc1ccc(/C=C/C(=O)NO)cc1 + Cc1[nH]c2ccc(F)cc2c1-c1nc2c3cccnc3c3ncccc3c2[nH]1,IC50,second compound 0.0316 µM,> 316 nM
same,IC50,second compound 0.1 µM,> 316 nM
same,IC50,second compound 0.316 µM,> 316 nM
same,IC50,second compound 1 µM,> 316 nM
same,IC50,second compound 3.16 µM,< 0.999 nM
same,IC50,second compound 10 µM,< 0.999 nM
same,"viability, T/C","second compound 0.0316 µM, first compound 0.000999 µM",99.3%
same,"viability, T/C","second compound 0.0316 µM, first compound 0.00316 µM",114%
same,"viability, T/C","second compound 0.0316 µM, first compound 0.00999 µM",97.1%
same,"viability, T/C",[1],94.9%
same,"viability, T/C","second compound 0.0316 µM, first compound 0.0999 µM",100%
same,"viability, T/C",[3],78.2%
same,"viability, T/C","second compound 0.1 µM, first compound 0.000999 µM",99.7%
same,"viability, T/C","second compound 0.1 µM, first compound 0.00316 µM",97.1%
same,"viability, T/C","second compound 0.1 µM, first compound 0.00999 µM",94.7%
same,"viability, T/C",[7],92.1%
same,"viability, T/C","second compound 0.1 µM, first compound 0.0999 µM",103%
same,"viability, T/C",[9],82.4%
same,"viability, T/C","second compound 0.316 µM, first compound 0.000999 µM",92.5%
same,"viability, T/C","second compound 0.316 µM, first compound 0.00316 µM",88.4%
same,"viability, T/C","second compound 0.316 µM, first compound 0.00999 µM",90.2%
same,"viability, T/C",[13],87.3%
same,"viability, T/C","second compound 0.316 µM, first compound 0.0999 µM",85.7%
same,"viability, T/C",[15],69.5%
same,"viability, T/C","second compound 1 µM, first compound 0.000999 µM",75.9%
same,"viability, T/C","second compound 1 µM, first compound 0.00316 µM",53.9%
same,"viability, T/C","second compound 1 µM, first compound 0.00999 µM",62.3%
same,"viability, T/C",[19],65.9%
same,"viability, T/C","second compound 1 µM, first compound 0.0999 µM",53.7%
same,"viability, T/C",[21],56.4%
same,"viability, T/C","second compound 3.16 µM, first compound 0.000999 µM",5.78%
same,"viability, T/C","second compound 3.16 µM, first compound 0.00316 µM",9.7%
same,"viability, T/C","second compound 3.16 µM, first compound 0.00999 µM",7.26%
same,"viability, T/C",[25],6.61%
same,"viability, T/C","second compound 3.16 µM, first compound 0.0999 µM",5.06%
same,"viability, T/C",[27],4.88%
same,"viability, T/C","second compound 10 µM, first compound 0.000999 µM",1.15%
same,"viability, T/C","second compound 10 µM, first compound 0.00316 µM",1.37%
same,"viability, T/C","second compound 10 µM, first compound 0.00999 µM",1.33%
same,"viability, T/C",[31],2.33%
same,"viability, T/C","second compound 10 µM, first compound 0.0999 µM",1.05%
same,"viability, T/C",[33],1.69%
COc1ccc([C@@H](O)c2cc(-c3ncnc4cc(N5CCOCC5)ccc34)c(F)cc2Cl)nn1 + Cc1cnc(CNC(=O)c2c(=O)c3ccc(N4CCCN(C)CC4)nc3n3c2sc2ccccc23)cn1,IC50,second compound 0.0316 µM,274 nM
same,IC50,second compound 0.1 µM,125 nM
same,IC50,second compound 0.316 µM,< 31.6 nM
same,IC50,second compound 1 µM,< 31.6 nM
same,IC50,second compound 3.16 µM,< 31.6 nM
same,IC50,second compound 10 µM,< 31.6 nM
same,"viability, T/C",[1],93.6%
same,"viability, T/C",[2],73.1%
same,"viability, T/C",[3],50%
same,"viability, T/C",[4],25.6%
same,"viability, T/C",[5],32%
same,"viability, T/C",[6],29.4%
same,"viability, T/C",[7],67.1%
same,"viability, T/C",[8],54.7%
same,"viability, T/C",[9],28.2%
same,"viability, T/C",[10],30%
same,"viability, T/C",[11],33.1%
same,"viability, T/C",[12],29.2%
same,"viability, T/C",[13],26.1%
same,"viability, T/C",[14],21.2%
same,"viability, T/C",[15],24.2%
same,"viability, T/C",[16],24.6%
same,"viability, T/C",[17],24.8%
same,"viability, T/C",[18],23.8%
same,"viability, T/C",[19],21.8%
same,"viability, T/C",[20],26.6%
same,"viability, T/C",[21],21.9%
same,"viability, T/C",[22],24.3%
same,"viability, T/C",[23],29.9%
same,"viability, T/C",[24],18.9%
same,"viability, T/C",[25],24.8%
same,"viability, T/C",[26],25.4%
same,"viability, T/C",[27],25.1%
same,"viability, T/C",[28],22.7%
same,"viability, T/C",[29],23.2%
same,"viability, T/C",[30],17.2%
same,"viability, T/C",[31],0.11%
same,"viability, T/C",[32],0.2%
same,"viability, T/C",[33],0.17%
same,"viability, T/C",[34],0.15%
same,"viability, T/C",[35],0.18%
same,"viability, T/C",[36],0.19%
